# In ChEMBL document CHEMBL1649413, “Structure-activity relationship of 4(5)-aryl-2-amino-1H-imidazoles, N1-substituted 2-aminoimidazoles and imidazo[1,2-a]pyrimidinium salts as inhibitors of biofilm formation by Salmonella typhimurium and Pseudomonas aeruginosa” (J Med Chem, 2011):
# The source made the active and inactive calls. No cut-off for these calls is given here.
# System: Pseudomonas aeruginosa
# Experiment: Antibiofilm activity in Pseudomonas aeruginosa assessed as inhibition of biofilm formation at 37 degC after 24 hrs
# Format: functional, organism-based
# Details: not given
row,SMILES,IC50 [µM]
1,Nc1nc(-c2ccc(-c3ccccc3)cc2)c[nH]1,365
2,Nc1ncc(-c2ccc(Br)cc2)[nH]1,51.3
3,Nc1ncc(-c2ccccc2)[nH]1,22.7
4,Nc1ncc(-c2ccc(F)cc2)[nH]1,47.6
5,Nc1ncc(-c2ccc(Cl)cc2)[nH]1,29.3
6,Nc1ncc(-c2ccc([N+](=O)[O-])cc2)[nH]1,94

# System: Salmonella typhimurium
# Experiment: Antimicrobial activity against Salmonella Typhimurium ATCC 14028 assessed as inhibition of planktonic growth at 400 uM at 25 degC after 24 hrs
# Format: functional, organism-based
# Details: Salmonella enterica subsp. enterica serovar Typhimurium
row,SMILES,inhibition
1,Nc1ncc(-c2ccc(Br)cc2)[nH]1,Active
2,Nc1ncc(-c2ccccc2)[nH]1,Active
3,Nc1ncc(-c2ccc(Cl)cc2)[nH]1,Active
4,Nc1ncc(-c2ccc([N+](=O)[O-])cc2)[nH]1,Active

# System: Salmonella typhimurium
# Experiment: Antimicrobial activity against Salmonella Typhimurium ATCC 14028 assessed as inhibition of planktonic growth at 50 uM at 37 degC after 24 hrs
# Format: functional, organism-based
# Details: Salmonella enterica subsp. enterica serovar Typhimurium
row,SMILES,inhibition
1,Nc1ncc(-c2ccc(Br)cc2)[nH]1,inactive

# System: Salmonella typhimurium
# Experiment: Antimicrobial activity against Salmonella Typhimurium ATCC 14028 assessed as inhibition of planktonic growth at 20 uM at 25 degC after 24 hrs
# Format: functional, organism-based
# Details: Salmonella enterica subsp. enterica serovar Typhimurium
row,SMILES,inhibition
1,Nc1nc(-c2ccc(-c3ccccc3)cc2)c[nH]1,Active
2,Nc1ncc(-c2ccccc2)n1C1CCCCCCC1,inactive

# System: Salmonella typhimurium
# Experiment: Antimicrobial activity against Salmonella Typhimurium ATCC 14028 assessed as inhibition of planktonic growth at 25 uM at 25 degC after 24 hrs
# Format: functional, organism-based
# Details: Salmonella enterica subsp. enterica serovar Typhimurium
row,SMILES,inhibition
1,Nc1ncc(-c2ccc([N+](=O)[O-])cc2)[nH]1,inactive

# System: Salmonella typhimurium
# Experiment: Antimicrobial activity against Salmonella Typhimurium ATCC 14028 assessed as inhibition of planktonic growth at 250 uM at 37 degC after 24 hrs
# Format: functional, organism-based
# Details: Salmonella enterica subsp. enterica serovar Typhimurium
row,SMILES,inhibition
1,Nc1ncc(-c2ccccc2)[nH]1,inactive

# System: Pseudomonas aeruginosa
# Experiment: Antimicrobial activity against Pseudomonas aeruginosa assessed as inhibition of planktonic growth at 40 uM at 37 degC after 24 hrs
# Format: functional, organism-based
# Details: not given
row,SMILES,inhibition
1,Nc1ncc(-c2ccc(Br)cc2)[nH]1,inactive
2,Nc1ncc(-c2ccccc2)[nH]1,inactive
3,Nc1ncc(-c2ccc(F)cc2)[nH]1,inactive
4,Nc1ncc(-c2ccc([N+](=O)[O-])cc2)[nH]1,inactive

# System: Pseudomonas aeruginosa
# Experiment: Antimicrobial activity against Pseudomonas aeruginosa assessed as inhibition of planktonic growth at 400 uM at 37 degC after 24 hrs
# Format: functional, organism-based
# Details: not given
row,SMILES,inhibition
1,Nc1nc(-c2ccc(-c3ccccc3)cc2)c[nH]1,Active

# System: Salmonella typhimurium
# Experiment: Antimicrobial activity against Salmonella Typhimurium ATCC 14028 assessed as inhibition of planktonic growth at 100 uM at 37 degC after 24 hrs
# Format: functional, organism-based
# Details: Salmonella enterica subsp. enterica serovar Typhimurium
row,SMILES,inhibition
1,Nc1ncc(-c2ccc(Br)cc2)[nH]1,inactive
2,Nc1ncc(-c2ccccc2)[nH]1,inactive

# System: Pseudomonas aeruginosa
# Experiment: Antimicrobial activity against Pseudomonas aeruginosa assessed as inhibition of planktonic growth at 100 uM at 37 degC after 24 hrs
# Format: functional, organism-based
# Details: not given
row,SMILES,inhibition
1,Nc1ncc(-c2ccc(Br)cc2)[nH]1,Active
2,Nc1ncc(-c2ccccc2)[nH]1,inactive
3,Nc1ncc(-c2ccc(F)cc2)[nH]1,inactive
4,Nc1ncc(-c2ccc([N+](=O)[O-])cc2)[nH]1,inactive

# System: Salmonella typhimurium
# Experiment: Antimicrobial activity against Salmonella Typhimurium ATCC 14028 assessed as inhibition of planktonic growth at 4 uM at 25 degC after 24 hrs
# Format: functional, organism-based
# Details: Salmonella enterica subsp. enterica serovar Typhimurium
row,SMILES,inhibition
1,Nc1ncc(-c2ccc(Br)cc2)[nH]1,inactive
2,Nc1ncc(-c2ccccc2)[nH]1,inactive
3,Nc1ncc(-c2ccc(F)cc2)[nH]1,inactive
4,Nc1ncc(-c2ccc(Cl)cc2)[nH]1,inactive

# System: Salmonella typhimurium
# Experiment: Antibiofilm activity in Salmonella Typhimurium ATCC 14028 assessed as inhibition of biofilm formation at 25 degC after 24 hrs
# Format: functional, organism-based, Salmonella enterica subsp. enterica serovar Typhimurium
# Details: Salmonella enterica, ATCC 14028, 24 h
row,SMILES,IC50 [µM]
1,Nc1nc(-c2ccc(-c3ccccc3)cc2)c[nH]1,17.3
2,Nc1ncc(-c2ccccc2)n1C1CCCCCCC1,40.5
3,Nc1ncc(-c2ccc(Br)cc2)[nH]1,47.9
4,Nc1ncc(-c2ccccc2)[nH]1,130
5,Nc1ncc(-c2ccc(F)cc2)[nH]1,84.4
6,Nc1ncc(-c2ccc(Cl)cc2)[nH]1,16
7,Nc1ncc(-c2ccc([N+](=O)[O-])cc2)[nH]1,17.6

# System: Salmonella typhimurium
# Experiment: Antimicrobial activity against Salmonella Typhimurium ATCC 14028 assessed as inhibition of planktonic growth at 10 uM at 25 degC after 24 hrs
# Format: functional, organism-based
# Details: Salmonella enterica subsp. enterica serovar Typhimurium
row,SMILES,inhibition
1,Nc1nc(-c2ccc(-c3ccccc3)cc2)c[nH]1,inactive
2,Nc1ncc(-c2ccccc2)n1C1CCCCCCC1,inactive
3,Nc1ncc(-c2ccc([N+](=O)[O-])cc2)[nH]1,inactive

# System: Salmonella typhimurium
# Experiment: Antimicrobial activity against Salmonella Typhimurium ATCC 14028 assessed as inhibition of planktonic growth at 200 uM at 25 degC after 24 hrs
# Format: functional, organism-based
# Details: Salmonella enterica subsp. enterica serovar Typhimurium
row,SMILES,inhibition
1,Nc1ncc(-c2ccc(F)cc2)[nH]1,Active

# System: Pseudomonas aeruginosa
# Experiment: Antimicrobial activity against Pseudomonas aeruginosa assessed as inhibition of planktonic growth at 80 uM at 25 degC after 24 hrs
# Format: functional, organism-based
# Details: not given
row,SMILES,inhibition
1,Nc1ncc(-c2ccccc2)n1C1CCCCCCC1,inactive

# System: Pseudomonas aeruginosa
# Experiment: Antibiofilm activity in Pseudomonas aeruginosa assessed as inhibition of biofilm formation at 25 degC after 24 hrs
# Format: functional, organism-based
# Details: not given
row,SMILES,IC50 [µM]
1,Nc1nc(-c2ccc(-c3ccccc3)cc2)c[nH]1,8.6
2,Nc1ncc(-c2ccccc2)n1C1CCCCCCC1,4.5
3,Nc1ncc(-c2ccc(Br)cc2)[nH]1,3.2
4,Nc1ncc(-c2ccccc2)[nH]1,72.6
5,Nc1ncc(-c2ccc(F)cc2)[nH]1,15
6,Nc1ncc(-c2ccc(Cl)cc2)[nH]1,3.5
7,Nc1ncc(-c2ccc([N+](=O)[O-])cc2)[nH]1,34.5

# System: Salmonella typhimurium
# Experiment: Antimicrobial activity against Salmonella Typhimurium ATCC 14028 assessed as inhibition of planktonic growth at 80 uM at 25 degC after 24 hrs
# Format: functional, organism-based
# Details: Salmonella enterica subsp. enterica serovar Typhimurium
row,SMILES,inhibition
1,Nc1ncc(-c2ccccc2)n1C1CCCCCCC1,Active

# System: Pseudomonas aeruginosa
# Experiment: Antimicrobial activity against Pseudomonas aeruginosa assessed as inhibition of planktonic growth at 50 uM at 25 degC after 24 hrs
# Format: functional, organism-based
# Details: not given
row,SMILES,inhibition
1,Nc1ncc(-c2ccc([N+](=O)[O-])cc2)[nH]1,inactive

# System: Salmonella typhimurium
# Experiment: Antimicrobial activity against Salmonella Typhimurium ATCC 14028 assessed as inhibition of planktonic growth at 150 uM at 37 degC after 24 hrs
# Format: functional, organism-based
# Details: Salmonella enterica subsp. enterica serovar Typhimurium
row,SMILES,inhibition
1,Nc1ncc(-c2ccc(Br)cc2)[nH]1,inactive
2,Nc1ncc(-c2ccccc2)[nH]1,inactive

# System: Pseudomonas aeruginosa
# Experiment: Antimicrobial activity against Pseudomonas aeruginosa assessed as inhibition of planktonic growth at 5 uM at 25 degC after 24 hrs
# Format: functional, organism-based
# Details: not given
row,SMILES,inhibition
1,Nc1ncc(-c2ccccc2)n1C1CCCCCCC1,inactive
2,Nc1ncc(-c2ccc(Br)cc2)[nH]1,inactive
3,Nc1ncc(-c2ccc(Cl)cc2)[nH]1,inactive

# System: Pseudomonas aeruginosa
# Experiment: Antimicrobial activity against Pseudomonas aeruginosa assessed as inhibition of planktonic growth at 100 uM at 25 degC after 24 hrs
# Format: functional, organism-based
# Details: not given
row,SMILES,inhibition
1,Nc1ncc(-c2ccccc2)[nH]1,inactive
2,Nc1ncc(-c2ccc([N+](=O)[O-])cc2)[nH]1,Active

# System: Salmonella typhimurium
# Experiment: Antimicrobial activity against Salmonella Typhimurium ATCC 14028 assessed as inhibition of planktonic growth at 25 uM at 37 degC after 24 hrs
# Format: functional, organism-based
# Details: Salmonella enterica subsp. enterica serovar Typhimurium
row,SMILES,inhibition
1,Nc1ncc(-c2ccc(Br)cc2)[nH]1,inactive

# System: Pseudomonas aeruginosa
# Experiment: Antimicrobial activity against Pseudomonas aeruginosa assessed as inhibition of planktonic growth at 10 uM at 25 degC after 24 hrs
# Format: functional, organism-based
# Details: not given
row,SMILES,inhibition
1,Nc1nc(-c2ccc(-c3ccccc3)cc2)c[nH]1,inactive
2,Nc1ncc(-c2ccc(Br)cc2)[nH]1,inactive
3,Nc1ncc(-c2ccc(F)cc2)[nH]1,inactive

# System: Pseudomonas aeruginosa
# Experiment: Antimicrobial activity against Pseudomonas aeruginosa assessed as inhibition of planktonic growth at 40 uM at 25 degC after 24 hrs
# Format: functional, organism-based
# Details: not given
row,SMILES,inhibition
1,Nc1nc(-c2ccc(-c3ccccc3)cc2)c[nH]1,inactive
2,Nc1ncc(-c2ccccc2)n1C1CCCCCCC1,inactive
3,Nc1ncc(-c2ccc(Br)cc2)[nH]1,Active
4,Nc1ncc(-c2ccc(F)cc2)[nH]1,inactive

# System: Pseudomonas aeruginosa
# Experiment: Antimicrobial activity against Pseudomonas aeruginosa assessed as inhibition of planktonic growth at 20 uM at 37 degC after 24 hrs
# Format: functional, organism-based
# Details: not given
row,SMILES,inhibition
1,Nc1ncc(-c2ccc(Br)cc2)[nH]1,inactive
2,Nc1ncc(-c2ccccc2)[nH]1,inactive
3,Nc1ncc(-c2ccc(F)cc2)[nH]1,inactive
4,Nc1ncc(-c2ccc(Cl)cc2)[nH]1,inactive
5,Nc1ncc(-c2ccc([N+](=O)[O-])cc2)[nH]1,inactive

# System: Salmonella typhimurium
# Experiment: Antibiofilm activity in Salmonella Typhimurium ATCC 14028 assessed as inhibition of biofilm formation at 37 degC after 24 hrs
# Format: functional, organism-based, Salmonella enterica subsp. enterica serovar Typhimurium
# Details: Salmonella enterica, ATCC 14028, 24 h
row,SMILES,IC50 [µM]
1,Nc1nc(-c2ccc(-c3ccccc3)cc2)c[nH]1,349
2,Nc1ncc(-c2ccc(Br)cc2)[nH]1,54.3
3,Nc1ncc(-c2ccccc2)[nH]1,146
4,Nc1ncc(-c2ccc(F)cc2)[nH]1,238
5,Nc1ncc(-c2ccc(Cl)cc2)[nH]1,30.1
6,Nc1ncc(-c2ccc([N+](=O)[O-])cc2)[nH]1,396

# System: Salmonella typhimurium
# Experiment: Antimicrobial activity against Salmonella Typhimurium ATCC 14028 assessed as inhibition of planktonic growth at 40 uM at 25 degC after 24 hrs
# Format: functional, organism-based
# Details: Salmonella enterica subsp. enterica serovar Typhimurium
row,SMILES,inhibition
1,Nc1nc(-c2ccc(-c3ccccc3)cc2)c[nH]1,Active
2,Nc1ncc(-c2ccc(Br)cc2)[nH]1,inactive
3,Nc1ncc(-c2ccccc2)[nH]1,inactive
4,Nc1ncc(-c2ccc(F)cc2)[nH]1,Active
5,Nc1ncc(-c2ccc(Cl)cc2)[nH]1,inactive
6,Nc1ncc(-c2ccc([N+](=O)[O-])cc2)[nH]1,Active

# System: Salmonella typhimurium
# Experiment: Antimicrobial activity against Salmonella Typhimurium ATCC 14028 assessed as inhibition of planktonic growth at 150 uM at 25 degC after 24 hrs
# Format: functional, organism-based
# Details: Salmonella enterica subsp. enterica serovar Typhimurium
row,SMILES,inhibition
1,Nc1ncc(-c2ccccc2)[nH]1,inactive

# System: Pseudomonas aeruginosa
# Experiment: Antimicrobial activity against Pseudomonas aeruginosa assessed as inhibition of planktonic growth at 800 uM at 37 degC after 24 hrs
# Format: functional, organism-based
# Details: not given
row,SMILES,inhibition
1,Nc1nc(-c2ccc(-c3ccccc3)cc2)c[nH]1,Active

# System: Salmonella typhimurium
# Experiment: Antimicrobial activity against Salmonella Typhimurium ATCC 14028 assessed as inhibition of planktonic growth at 400 uM at 37 degC after 24 hrs
# Format: functional, organism-based
# Details: Salmonella enterica subsp. enterica serovar Typhimurium
row,SMILES,inhibition
1,Nc1nc(-c2ccc(-c3ccccc3)cc2)c[nH]1,Active
2,Nc1ncc(-c2ccccc2)[nH]1,inactive
3,Nc1ncc(-c2ccc([N+](=O)[O-])cc2)[nH]1,Active
